# US9265845B2, “Imaging methods using engineered integrin binding peptides” (The Board of Trustees of the Leland Stanford Junior …, priority 2006, dated 2016)
# Entries after “also recorded” stand apart in the source; their conditions may differ.
# Key:
# [1] = biological target: α5β1 integrin (Homo sapiens, UniProt P05556+P08648); assay: Competition of 125I-echistatin to detergent-solubilized plate-coated integrin; assay type: binding; settings: 0.06 nM 125I echistatin, 5 nM and 50 nM peptide
# Method: (§1) FIG. 10A through FIG. 10D is a series of histograms showing binding specificities to integrins αvβ3, αvβ5, α5β1, and αiibβ3 for engineered EETI-RGD peptides compared to controls. Error bars represent experiments performed in triplicate. Competition binding of 0.06 nM ^125I echistatin with 5 nM (black bars) and 50 nM (grey bars) unlabeled peptide to plate-coated integrins was measured. […] The engineered peptides have very little binding to αiibβ3 integrin.
# (§2) This was done by competition of ^125I-echistatin to detergent-solubilized integrin receptors coated onto microtiter plates (see FIG. 10). […] This is consistent with previous studies which have shown αv integrin receptors can accommodate a wide range of RGD-containing cyclic structures. […] However, since α5β1 integrins are expressed on many tumors and are all involved in mediating angiogenesis and metastasis, a broad spectrum agent that targets all three integrins will be useful for diagnostic and therapeutic applications. With the exception of echistatin, all of the RGD-containing peptides bound weakly to the αiibβ3 receptor, showing the specificity of the present peptides for the αv and α5-containing integrin heterodimers. This characteristic is valuable for molecular imaging and therapeutic applications, since binding to αiibβ3 on platelet cells prevents blood clotting and would lead to non-specific in vivo effects.
# [2] = biological target: αvβ3 integrin (Homo sapiens, UniProt P05106+P06756); assay: as above; assay type: binding; settings: 0.06 nM 125I echistatin, 5 nM and 50 nM peptide
# Method: as §1, §2
# [3] = biological target: αvβ5 integrin (Homo sapiens, UniProt P06756+P18084); assay: as above; assay type: binding; settings: 0.06 nM 125I echistatin, 5 nM and 50 nM peptide
# Method: as §1, §2
# [4] = system: U87MG glioblastoma cells; assay: Blocking of U87MG cell adhesion to fibronectin-coated plates; assay type: cell-based
# Description: (§3) The present engineered peptides may be used in a variety of ways. If the peptides are attached to a surface, they may be used to attract/recruit cells to grow on the surface. For example, the present peptides may be applied to prosthetic devices, implants, bone grafts, and the like to promote tissue growth and healing at the site. They may be attached to culture dishes and promote attachment and differentiation of cells in culture. In addition, the present engineered peptides may be used to modulate cell binding to selected integrins such as α5β1, αvβ3 and αvβ5, particularly αvβ3, by adding the peptides to a cell culture to prevent cells expressing these integrins from adhering to a substrate. […] Also, the present 2.5F, 2.5D and 1.5B peptides were tested for blocking adhesion of U87MG glioblastoma cells to fibronectin-coated plates.
# (§4) In another experiment, the ability of engineered knottin peptides to block U87MG cell adhesion to vitronectin- and fibronectin-coated microtiter plates. Vitronectin is a natural ligand for several integrins, including αvβ3 and αvβ5. The RGD-containing peptides were all able to inhibit U87MG cell adhesion to vitronectin-coated plates in a dose-responsive manner. […] Fibronectin also binds to several integrins, (including αvβ3 and α5β1), but the α5β1 integrin receptor is generally selective for fibronectin.
# [5] = system: U87MG glioblastoma cells; assay: Blocking of U87MG cell adhesion to vitronectin-coated plates; assay type: cell-based; settings: vitronectin-coated plates
# Description: as §3, §4
# Whether the engineered AgRP peptides could block vitronectin-mediated adhesion to the U87MG cells was tested using an analogous assay. […] The AgRP peptides may not effectively block U87MG adhesion compared to the K562-αvβ3 cells because the αvβ5 integrins co-expressed on the surface of the U87MG cells could also contribute to vitronectin-mediated adhesion and compensate for the loss of αvβ3 integrin function.
# [6] = system: U87MG tumor; assay: MicroPET imaging and biodistribution of radiolabeled peptides in U87MG tumor-bearing mice; assay type: in vivo, mouse
# Method: MicroPET imaging of tumor-bearing mice is performed on a microPET R4 rodent model scanner (Concorde Microsystems Inc, Knoxyille, Tenn.). U87MG tumor bearing mice are injected with PET imaging agent via the tail vein. At various times post injection, the mice are anesthetized with 2% isoflurane, and 10 min static scans are obtained. Images are reconstructed by a two-dimensional ordered expectation maximum subset algorithm as previously described. Regions of interest (ROI) are drawn over the tumor on decay corrected whole body images and ROI derived % injected dose per gram of tissue is determined. Statistical analysis is performed using the student's t-test for unpaired data. A 95% confidence level is used to determine statistical significance.
# Female athymic mice bearing U87MG tumors were injected with 80-150 μCi of ^64Cu-DOTA-knottin 2.5D or 7-9 μCi of [^18F]-FB-E[knottin 2.5D]. Static images were taken at various timepoints post injection using a microPET R4 rodent model scanner (Concorde Microsystems Inc, Knoxyille, Tenn.). […] Uptake was also observed in the kidney as both probes cleared through the bladder.
# Mice are sacrificed by exanguinations at various time points postinjection. Blood, tumor and the major organs and tissues are collected, wet-weighed and measured in a γ-counter. The % injected dose per gram is determined for each sample. For each mouse, radioactivity of the tissue samples is calibrated against a known aliquot of the injectate. Values are reported as the mean±standard deviation.
# The following Table 10 quantifies the ^64Cu-DOTA knottin uptake by direct tissue sampling of the mice up to 24 hours post injection and is reported in % ID (percent injected dose)/gram. Similar results were obtained with [^18F]-FB-E[knottin 2.5D].
# A U87MG glioblastoma xenograft mouse model was used. U87MG cells were maintained at 37° C. in a humidified atmosphere containing 5% CO2 in Dulbecco's modified eagle medium, 10% heat-inactivated fetal bovine serum, and penicillin-streptomycin (all from Invitrogen). Animal procedures were carried out according to a protocol by Stanford University Administrative Panels on Laboratory Animal Care. Female athymic nude mice (nu/nu), obtained at 4-6 weeks of age (Charles River Laboratories, Inc.), were injected subcutaneously in the right or left shoulder with 2×10^7 U87MG glioblastoma cells suspended in 100 μL of PBS. Mice were used for in vivo imaging studies when their tumors reached approximately 8 to 10 millimeters in diameter.
# U87MG tumor-bearing mice (n=3 or more for each probe) were injected with ˜100 μCi of ^64Cu-DOTA-conjugated peptides via the tail vein and imaged with a microPET R4 rodent model scanner (Siemens Medical) using 3 or 5 min static scans. […] Images were reconstructed by a two dimensional ordered expectation maximum subset algorithm and calibrated as previously described (Wu, Y, Zhang, X, Xiong, Z, et al. microPET imaging of glioma integrin {alpha}v{beta}3 expression using (64)Cu-labeled tetrameric RGD peptide. J Nucl Med 2005; 46:1707-18). ROIs were drawn over the tumor on decay-corrected whole body images using ASIPro VM software (Siemens Medical). The mean counts per pixel per minute were obtained from the ROI and converted to counts per milliliter per minute with a calibration constant. ROIs were converted to counts/g/min, and % ID/g values were determined assuming a tissue density of 1 g/mL. No attenuation correction was performed.
SMILES,"binding to α5β1 integrin, in words [1]","binding to αvβ3 integrin, in words [2]","binding to αvβ5 integrin, in words [3]","blocking of U87MG cell adhesion to fibronectin, in words [4]","blocking of U87MG cell adhesion to vitronectin, in words [5]","liver uptake, in words ([6]; 64Cu-DOTA-labeled peptides, compared to 64Cu-DOTA-c(RGDyK))","tumor/blood ratios, in words ([6]; PET studies, 4 h post injection, compared to 2.5D)","PET tumor targeting / imaging signal, in words ([6]; radiolabeled peptides, U87MG tumor-bearing mice)"
CC[C@H](C)[C@@H]1NC(=O)[C@H]([C@@H](C)O)NC(=O)[C@@H](NC(=O)CN)CSSC[C@@H]2NC(=O)CNC(=O)[C@H](C)NC(=O)[C@H](CC(C)C)NC(=O)[C@@H]3CSSC[C@@H](C(=O)NCC(=O)O)NC(=O)[C@H](Cc4ccccc4)NC(=O)CNC(=O)[C@H](CC(N)=O)NC(=O)[C@@H]4CCCN4C(=O)CNC(=O)[C@H](CSSC[C@H](NC(=O)[C@H](CCC(=O)O)NC(=O)[C@H](CO)NC(=O)[C@@H]4CCCN4C(=O)[C@H](C)NC(=O)[C@H](Cc4c[nH]c5ccccc45)NC(=O)[C@H](CC(=O)O)NC(=O)CNC(=O)[C@H](CCCNC(=N)N)NC(=O)CNC1=O)C(=O)N[C@@H](CO)C(=O)N[C@@H](CCC(N)=O)C(=O)N[C@@H](CC(=O)O)C(=O)N[C@@H](CO)C(=O)N[C@@H](CC(=O)O)C(=O)N3)NC(=O)[C@H](C(C)C)NC2=O [1.5B],only minimal binding,strongest levels of binding,strongest levels of binding,only echistatin and polypeptide 2.5F blocked adhesion,,,,
CC(C)C[C@@H]1NC(=O)[C@@H]2CSSC[C@@H](C(=O)NCC(=O)O)NC(=O)[C@H](Cc3ccccc3)NC(=O)CNC(=O)[C@H](CC(N)=O)NC(=O)[C@@H]3CCCN3C(=O)CNC(=O)[C@@H]3CSSC[C@H](NC(=O)[C@H]([C@@H](C)O)NC(=O)[C@H](CC(C)C)NC(=O)[C@@H]4CCCN4C(=O)[C@@H]4CCCN4C(=O)[C@H](CC(N)=O)NC(=O)[C@H](CC(=O)O)NC(=O)CNC(=O)[C@H](CCCNC(=N)N)NC(=O)[C@@H]4CCCN4C(=O)[C@H](CCCNC(=N)N)NC(=O)[C@@H]4CCCN4C(=O)[C@@H](NC(=O)CN)CSSC[C@H](NC(=O)CNC(=O)[C@H](C)NC1=O)C(=O)N[C@@H](C(C)C)C(=O)N3)C(=O)N[C@@H](CO)C(=O)N[C@@H](CCC(N)=O)C(=O)N[C@@H](CC(=O)O)C(=O)N[C@@H](CO)C(=O)N[C@@H](CC(=O)O)C(=O)N2 [2.5F],binds with strong affinity,strongest levels of binding,strongest levels of binding,blocked adhesion; also recorded: able to block,blocked adhesion better than controls,lower liver uptake,much higher tumor/blood ratios,slower tumor washout compared to 2.5D
